Measurements as given in patent publication US20230390228A1, “TREATMENT METHODS USING GHB” (Jazz Pharmaceuticals Ireland Limited, priority 2020, published 2023).

Columns and labels:
[1] = tested on: patients with fibromyalgia; experiment: Randomized, double-blind, placebo-controlled fibromyalgia study (Example 1), analysed by baseline slow wave sleep (Example 2); type: in vivo, human; details: for response to oxybate (dose dependence) / change from baseline in Fibromyalgia Impact Questionnaire (FIQ) / change from baseline in pain visual analog scale (PVAS): FIG. 1; for change from baseline in Fibromyalgia Impact Questionnaire (FIQ) / change from baseline in pain visual analog scale (PVAS): Xyrem 4.5 g or 6 g/night vs placebo, 8 weeks
Text: This study was a randomized, double-blind, placebo-controlled, parallel group study in subjects diagnosed with fibromyalgia.
The ACR criteria included: presence of widespread pain for more than 3 months in all 4 quadrants of the body as well as along the spine and the elicitation of pain at 11 or more out of 18 anatomically defined tender points upon palpation with a force of 4 kg.
Subjects underwent screening assessments. Subjects who met the eligibility criteria underwent a drug withdrawal and washout period during which time pain medications and any treatment for fibromyalgia were gradually withdrawn. At the end of the 2-week baseline assessment period, subjects who continued to meet inclusion/exclusion criteria and who reported an average pain score above 4 (on a visual analog scale [VAS] of 0 to 10) during the last week of the baseline period were randomized to 1 of 3 treatment groups: Xyrem 4.5 g/night, Xyrem 6 g/night, or placebo (half of the subjects randomized to placebo received placebo matching 4.5 g and the other half received placebo matching 6 g).
Test Product, Dose, Mode of Administration, and Duration of Treatment: • Sodium oxybate 4.5 g, oral solution (9 mL) taken in 2 equally divided doses (4.5 mL added to 2 oz water) each night for 8 weeks. • Sodium oxybate 6 g, oral solution (12 mL) taken in 2 equally divided doses (6 mL added to 2 oz of water) each night for 8 weeks.
Reference Therapy, Dose and Mode of Administration: • Placebo (sodium citrate solution) 4.5 g, oral solution (9 mL) matching volume of Xyrem 4.5 g, taken in 2 equally divided doses (4.5 mL added to 2 oz water) each night. • Placebo (sodium citrate solution) 6 g, oral solution (12 mL) matching volume of Xyrem 6 g, taken in 2 equally divided doses (6 mL added to 2 oz water) each night.
The primary efficacy parameter was a binary composite parameter for the treatment of fibromyalgia syndrome. The proportion of subjects in each treatment group that met all 3 of the following response criteria was compared to assess the efficacy of Xyrem in response to fibromyalgia syndrome. • Pain Severity: as assessed by pain VAS data recorded 3 time a day by the subject in an electronic diary (eDiary). For pain VAS, a response was defined as a reduction in average pain of 20% or greater from baseline to Week 8. • Functionality (Fibromyalgia Impact Questionnaire [FIQ]): Change from baseline to a study visit was assessed. A response was defined as a reduction of 20% or greater in FIQ total score from baseline to Week 8. • Patient Global Impression of Change (PGIc): The subject's perception of the overall improvement in their fibromyalgia symptoms was assessed by means of the PGIc questionnaire completed at the end of study. A response to treatment was defined as a response of “Very much better” or “Much better” on the PGIc.
Severity of Pain: the mean change from baseline to a study visit in pain severity (VAS pain). The proportion of responders for pain, defined as the proportion of subjects who had at least 20% reduction in pain severity from baseline to a study visit.
Fibromyalgia Impact Questionnaire: The mean change from baseline to a study visit in FIQ total score and subscale scores. The proportion of FIQ responders, defined as the proportion of subjects who had at least a 20% reduction in FIQ total score from baseline to a study visit.
Subjective Assessments of Sleep and Fatigue: • Daytime Sleepiness: the mean change from baseline to a study visit in the Epworth Sleepiness Scale (ESS). • Sleep Patterns: the mean change from baseline to a study visit in the Jenkins Scale (JS). • Fatigue: the mean change from baseline to a study visit in the fatigue VAS score. • Functional Outcomes of Sleep Questionnaire (FOSQ): the mean changes from baseline to a study visit in FOSQ total score and subscale scores. […]

narcolepsy = details: in vivo; cited from earlier work
brain = details: in vivo; cited from earlier work
[2] = target: GABA-ketoglutarate transaminase (Homo sapiens, UniProt P80404); details: cited from earlier work
Chain of GABA-ketoglutarate transaminase (P80404 29-500): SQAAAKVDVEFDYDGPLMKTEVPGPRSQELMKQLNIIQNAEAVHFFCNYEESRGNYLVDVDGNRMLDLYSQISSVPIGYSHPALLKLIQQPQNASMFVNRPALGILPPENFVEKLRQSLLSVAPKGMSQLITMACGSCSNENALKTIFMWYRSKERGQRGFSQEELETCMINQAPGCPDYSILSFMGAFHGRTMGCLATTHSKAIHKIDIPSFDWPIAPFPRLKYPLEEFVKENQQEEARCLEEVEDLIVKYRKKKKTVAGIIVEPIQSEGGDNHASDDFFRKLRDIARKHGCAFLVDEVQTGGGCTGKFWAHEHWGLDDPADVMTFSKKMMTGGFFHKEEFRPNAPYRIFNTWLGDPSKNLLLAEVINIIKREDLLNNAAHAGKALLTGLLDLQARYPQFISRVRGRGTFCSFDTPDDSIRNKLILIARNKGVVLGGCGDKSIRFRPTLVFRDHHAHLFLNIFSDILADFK

[3] = tested on: narcolepsy patients with cataplexy; details: cited from earlier work
[4] = patients with less than about 1% slow wave sleep at baseline or screening
[5] = patients with ≥20% slow wave sleep prior to treatment

O=C(O)CCCO [oxybate, Gamma-hydroxybutyrate]
oxybate response (FIQ, Pain VAS, Fatigue VAS, TPC) ([1]; low baseline slow wave sleep (quartile 1), FIG. 3A-3D): improved oxybate response | response to oxybate (dose dependence) [1, 4]: dose-dependent response | change from baseline in Fibromyalgia Impact Questionnaire (FIQ) [1, 4]: significant improvements | change from baseline in pain visual analog scale (PVAS) [1, 4]: significant improvements | response to oxybate (dose dependence) [1, 5]: did not exhibit a dose-dependent response | change in FIQ from baseline ([1]; slow wave sleep quartile 1 (<13.5 min stage 3/4 sleep at baseline), 4.5 g and 6.0 g Xyrem vs placebo, FIG. 3A): significant improvements | change in Fatigue VAS from baseline ([1]; slow wave sleep quartile 1 (<13.5 min stage 3/4 sleep at baseline), 4.5 g and 6.0 g Xyrem vs placebo, FIG. 3C): significant improvements | change in Tender Points Count (TPC) from baseline ([1]; slow wave sleep quartile 1 (<13.5 min stage 3/4 sleep at baseline), 4.5 g and 6.0 g Xyrem vs placebo, FIG. 3D): significant improvements | REM latency (narcolepsy): decreases | REM sleep (narcolepsy): increases | signs and symptoms of narcolepsy (daytime sleepiness, cataplexy, sleep paralysis, hypnagogic hallucinations) (narcolepsy): substantially reduces | sleep apnea (narcolepsy): reduces | total sleep time (narcolepsy): increases | brain acetylcholine (brain): increases | brain dopamine (brain): increases | glucose utilization in the brain (brain): depression | inhibition of GABA-ketoglutarate transaminase [2]: inhibition

O=C(O)CCCO [sodium oxybate]
change from baseline in Fibromyalgia Impact Questionnaire (FIQ) [1, 5]: did not differ significantly | change from baseline in pain visual analog scale (PVAS) [1, 5]: did not differ significantly | consolidation of REM sleep [3]: increased | duration of slow wave sleep [3]: increased | number of sleep arousals [3]: decreased
